{"source": "patent US8486965B2", "about": "“Pyrrolo[2,3-b]pyridine derivative and use thereof for treatment of cancer” (Takeda Pharmaceutical Company Limited, priority 2009, dated 2013)"}
{"test_system": "Hedgehog signal transduction system (Smo)", "experiment": "Gli reporter luciferase assay in NIH-3T3/Gli reporter cells stimulated with mouse Shh-N end fragment", "format": "cell-based", "conditions": "NIH3T3; 1 μM compound; NIH-3T3/Gli reporter cells with mouse Shh-N end fragment culture supernatant, 48 hr; luciferase activity, control without compound as 100; read-out: inhibition rate (%) at 1 μM", "source_text": "Inhibition of the Hedgehog signal transduction system can be measured, for example, by quantifying a decrease in the expression level of a reporter gene connected to the downstream of the Gli binding site based on the fluorescence intensity according to the following Experimental Example 1. Alternatively, it can be measured by quantifying the expression of Gli-1 mRNA in a cell extract by quantitative PCR method and the like. A compound that inhibits Hedgehog signal targets Smo, which can be confirmed, for example, by binding fluorescence-labeled Cyclopamine and a test compound to cells expressing Smo, measuring the fluorescence level of the cell, and comparing the value with that without addition of a test compound to find a decrease.\nGli reporter plasmid was constructed by inserting 8×Gli-binding site and chicken δ-crystalline promoter into the upstream of luc+ of pGL3 (Promega).\nprepared in reference to the base sequence described in GenBank accession No.; X02187, and chicken genome DNA (Clontech) as a template. PCR reaction was performed using Pfu Turbo (Stratagene) and following the attached protocol. The obtained 108 bp fragment was digested with restriction enzymes BglII and HindIII, and inserted into BglII-HindIII site of pGL3 to give plasmid pGL3/δ-cry promoter.\nAs 8× Gli-binding site, a sequence containing eight 9-bp Gli bound consensus sequences (GACCACCCA) described in Yoon et al., J. Biol. Chem., vol. 273, pages 3496-3501 (1998) was prepared from synthetic DNA. That is, two synthetic DNAs,\nwere heat treated at 95° C. for 2 minutes, and incubated at 37° C. for 1 hr for annealing to give a double stranded DNA of the above-mentioned two synthetic DNAs. The obtained double stranded DNA was digested with restriction enzymes BglII and KpnI, and the obtained DNA fragment was inserted into BglII-KpnI site of pGL3/δ-cry promoter to construct plasmid pGL3/δ-cry promoter, 8× Gli binding site, i.e., Gli reporter plasmid. 2. Construction of Plasmid for Expression of Mouse Shh-N End Fragment\nAs a material for construction of plasmid for Shh-N end fragment expression, mouse Shh cDNA was cloned at first.\nThe mouse Shh cDNA was cloned by Nested PCR method using mouse 11-day fetus cDNA (Clontech) as a template. The primer sequence was prepared in reference to the base sequence described in GenBank accession No.; NM_009170.\nUsing the mouse Shh cDNA sequence obtained as mentioned above as a template, a partial cDNA sequence wherein stop codon (TGA) was added to 3′-terminal of cDNA sequence encoding 1st to 198th amino acid sequence of mouse Shh was obtained by PCR method. As the primer set,\nIn the manner mentioned above, a plasmid for mouse Shh-N end fragment expression, pcDNA3.1/mShh-N, was constructed.\nHEK293 cells were grown in D-MEM medium (Invitrogen) containing 10% fetal bovine serum in a 10 cm dish and pcDNA3.1/mShh-N was introduced into the cells using FuGENE6 (Roche Applied Science). Thereafter, the HEK293 cells were cultured in a carbon dioxide gas incubator at 37° C. for 24 hours, and the medium was exchanged with D-MEM medium (Invitrogen) containing 2% fetal bovine serum. After culturing for 48 hr, culture supernatant containing recombinant type mouse Shh-N end fragment was obtained by filtration using a filter ([…]).\nUsing D-MEM (Invitrogen) containing 10% fetal bovine serum, expression plasmid pcDNA3:1 and Gli reporter plasmid (pGL3/δ-cry promoter, 8× Gli binding site) produced by the method of Experimental Example 1 were introduced into NIH-3T3 cells grown in a 10 cm dish by the use of FuGENE6 (Roche Applied Science).\nAfter culture for 24 hr, the cells were recovered, suspended in D-MEM medium containing 10% fetal bovine serum and supplemented with Geneticin (Life Technologies Oriental, Inc.) to a final concentration of 500 μg/ml, diluted to 10^4 cells/ml, plated on a 96 well plate, and cultured in a carbon dioxide gas incubator at 37° C. to give Geneticin resistant transformed cell line. […]", "units": {"inhibition at 1 µM": "%"}}
{"smiles": "CCc1nc2c(cc1Nc1cccc(OC)c1)c(OCC(F)(F)F)c(C(=O)NC1CCN(C(=O)CO)CC1)n2C", "note": "[Example 5, 6-ethyl-N-[1-(hydroxyacetyl)piperidin-4-yl]-5-[(3-methoxyphenyl)amino]-1-methyl-3-(2,2,2-trifluoroethoxy)-1H-pyrrolo[2,3-b]pyridine-2-carboxamide]", "inhibition at 1 µM": 97}
{"smiles": "CCc1nc2c(cc1NC(=O)c1ccccc1)c(OCC(F)(F)F)c(C(=O)NC1CCN(C(=O)CO)CC1)n2C", "note": "[Example 7, 6-ethyl-N-[1-(hydroxyacetyl)piperidin-4-yl]-1-methyl-5-[(phenylcarbonyl)amino]-3-(2,2,2-trifluoroethoxy)-1H-pyrrolo[2,3-b]pyridine-2-carboxamide]", "inhibition at 1 µM": 96}
{"smiles": "CCc1nc2c(cc1CC(=O)c1ccccc1)c(OCC(F)(F)F)c(C(=O)NC1CCN(C(=O)CO)CC1)n2C", "note": "[Example 9, 6-ethyl-N-[1-(hydroxyacetyl)piperidin-4-yl]-1-methyl-5-(2-oxo-2-phenylethyl)-3-(2,2,2-trifluoroethoxy)-1H-pyrrolo[2,3-b]pyridine-2-carboxamide]", "inhibition at 1 µM": 98}
{"smiles": "CCc1nc2c(cc1NC(=O)c1ccccc1F)c(OCC(F)(F)F)c(C(=O)NC1CCN(C(=O)CO)CC1)n2C", "note": "[Example 22, 6-ethyl-5-{[(2-fluorophenyl)carbonyl]amino}-N-[1-(hydroxyacetyl)piperidin-4-yl]-1-methyl-3-(2,2,2-trifluoroethoxy)-1H-pyrrolo[2,3-b]pyridine-2-carboxamide]", "inhibition at 1 µM": 93}
{"smiles": "CCc1nc2c(cc1NC(=O)c1ccc(F)cc1)c(OCC(F)(F)F)c(C(=O)NC1CCN(C(=O)CO)CC1)n2C", "note": "[Example 24, 6-ethyl-5-{[(4-fluorophenyl)carbonyl]amino}-N-[1-(hydroxyacetyl)piperidin-4-yl]-1-methyl-3-(2,2,2-trifluoroethoxy)-1H-pyrrolo[2,3-b]pyridine-2-carboxamide]", "inhibition at 1 µM": 90}
{"smiles": "CCc1nc2c(cc1NC(=O)c1cccs1)c(OCC(F)(F)F)c(C(=O)NC1CCN(C(=O)CO)CC1)n2C", "note": "[Example 29, 6-ethyl-N-[1-(hydroxyacetyl)piperidin-4-yl]-1-methyl-5-[(thiophen-2-ylcarbonyl)amino]-3-(2,2,2-trifluoroethoxy)-1H-pyrrolo[2,3-b]pyridine-2-carboxamide]", "inhibition at 1 µM": 95}
{"smiles": "CCc1nc2c(cc1NC(=O)c1cccc(F)c1)c(OCC(F)(F)F)c(C(=O)NC1CCN(C(=O)CO)CC1)n2C", "note": "[Example 30, 6-ethyl-5-{[(3-fluorophenyl)carbonyl]amino}-N-[1-(hydroxyacetyl)piperidin-4-yl]-1-methyl-3-(2,2,2-trifluoroethoxy)-1H-pyrrolo[2,3-b]pyridine-2-carboxamide]", "inhibition at 1 µM": 97}
{"smiles": "CCc1nc2c(cc1NC(=O)c1ccc(Cl)cc1)c(OCC(F)(F)F)c(C(=O)NC1CCN(C(=O)CO)CC1)n2C", "note": "[Example 32, 5-{[(4-chlorophenyl)carbonyl]amino}-6-ethyl-N-[1-(hydroxyacetyl)piperidin-4-yl]-1-methyl-3-(2,2,2-trifluoroethoxy)-1H-pyrrolo[2,3-b]pyridine-2-carboxamide]", "inhibition at 1 µM": 98}
{"smiles": "CCc1nc2c(cc1NC(=O)c1ccc(F)cc1)c(OC(C)C)c(C(=O)NC1CCN(C(=O)CO)CC1)n2C", "note": "[Example 33, 6-ethyl-5-{[(4-fluorophenyl)carbonyl]amino}-N-[1-(hydroxyacetyl)piperidin-4-yl]-1-methyl-3-(1-methylethoxy)-1H-pyrrolo[2,3-b]pyridine-2-carboxamide]", "inhibition at 1 µM": 95}
{"smiles": "CCc1nc2c(cc1NC(=O)c1ccc(OC)cc1)c(OCC(F)(F)F)c(C(=O)NC1CCN(C(=O)CO)CC1)n2C", "note": "[Example 34, 6-ethyl-N-[1-(hydroxyacetyl)piperidin-4-yl]-5-{[(4-methoxyphenyl)carbonyl]amino}-1-methyl-3-(2,2,2-trifluoroethoxy)-1H-pyrrolo[2,3-b]pyridine-2-carboxamide]", "inhibition at 1 µM": 93}
{"smiles": "CCc1nc2c(cc1NC(=O)c1ccccc1)c(OCC(F)(F)F)c(C(=O)N[C@H]1CC[C@H](O)CC1)n2C", "note": "[Example 37, 6-ethyl-N-(trans-4-hydroxycyclohexyl)-1-methyl-5-[(phenylcarbonyl)amino]-3-(2,2,2-trifluoroethoxy)-1H-pyrrolo[2,3-b]pyridine-2-carboxamide]", "inhibition at 1 µM": 87}
{"smiles": "CCOc1c(C(=O)NC2CCN(C(=O)CO)CC2)n(C)c2nc(CC)c(NC(=O)c3ccc(F)cc3)cc12", "note": "[Example 39, 3-ethoxy-6-ethyl-5-{[(4-fluorophenyl)carbonyl]amino}-N-[1-(hydroxyacetyl)piperidin-4-yl]-1-methyl-1H-pyrrolo[2,3-b]pyridine-2-carboxamide]", "inhibition at 1 µM": 96}
{"smiles": "CCc1nc2c(cc1NC(=O)c1ccccc1)c(OCC(F)(F)F)c(C(=O)NC1CCS(=O)(=O)CC1)n2C", "note": "[Example 40, N-(1,1-dioxidotetrahydro-2H-thiopyran-4-yl)-6-ethyl-1-methyl-5-[(phenylcarbonyl)amino]-3-(2,2,2-trifluoroethoxy)-1H-pyrrolo[2,3-b]pyridine-2-carboxamide]", "inhibition at 1 µM": 97}
{"smiles": "CCc1nc2c(cc1NC(=O)c1ccccc1)c(OCC(F)(F)F)c(C(=O)NC1CC[S+]([O-])CC1)n2C", "note": "(stereo not shown) [Example 41, 6-ethyl-1-methyl-N-(1-oxidotetrahydro-2H-thiopyran-4-yl)-5-[(phenylcarbonyl)amino]-3-(2,2,2-trifluoroethoxy)-1H-pyrrolo[2,3-b]pyridine-2-carboxamide]", "inhibition at 1 µM": 96}
{"smiles": "CCc1nc2c(cc1NC(=O)c1ccccn1)c(OCC(F)(F)F)c(C(=O)NC1CCN(C(=O)CO)CC1)n2C", "note": "[Example 42, 6-ethyl-N-[1-(hydroxyacetyl)piperidin-4-yl]-1-methyl-5-[(pyridin-2-ylcarbonyl)amino]-3-(2,2,2-trifluoroethoxy)-1H-pyrrolo[2,3-b]pyridine-2-carboxamide]", "inhibition at 1 µM": 92}
{"smiles": "CCOc1c(C(=O)NC2CCN(C(=O)CO)CC2)n(C)c2nc(CC)c(NC(=O)c3ccccc3)cc12", "note": "[Example 45, 3-ethoxy-6-ethyl-N-[1-(hydroxyacetyl)piperidin-4-yl]-1-methyl-5-[(phenylcarbonyl)amino]-1H-pyrrolo[2,3-b]pyridine-2-carboxamide]", "inhibition at 1 µM": 98}
{"smiles": "Cc1nc2c(cc1NC(=O)c1ccccc1)c(OCC(F)(F)F)c(C(=O)NC1CCN(C(=O)CO)CC1)n2C", "note": "[Example 47, N-[1-(hydroxyacetyl)piperidin-4-yl]-1,6-dimethyl-5-[(phenylcarbonyl)amino]-3-(2,2,2-trifluoroethoxy)-1H-pyrrolo[2,3-b]pyridine-2-carboxamide]", "inhibition at 1 µM": 97}
{"smiles": "Cc1nc2c(cc1NC(=O)c1ccc(F)cc1)c(OCC(F)(F)F)c(C(=O)NC1CCN(C(=O)CO)CC1)n2C", "note": "[Example 48, 5-{[(4-fluorophenyl)carbonyl]amino}-N-[1-(hydroxyacetyl)piperidin-4-yl]-1,6-dimethyl-3-(2,2,2-trifluoroethoxy)-1H-pyrrolo[2,3-b]pyridine-2-carboxamide]", "inhibition at 1 µM": 97}
{"smiles": "CCc1nc2c(cc1NC(=O)c1ccsc1)c(OCC(F)(F)F)c(C(=O)NC1CCN(C(=O)CO)CC1)n2C", "note": "[Example 50, 6-ethyl-N-[1-(hydroxyacetyl)piperidin-4-yl]-1-methyl-5-[(thiophen-3-ylcarbonyl)amino]-3-(2,2,2-trifluoroethoxy)-1H-pyrrolo[2,3-b]pyridine-2-carboxamide]", "inhibition at 1 µM": 94}
